Results: ChEMBL document CHEMBL5104182, “Design and Synthesis of a 2-Amino-pyridine Derivative as a Potent CDK8 Inhibitor for Anti-colorectal Cancer Therapy” (J Med Chem, 2022)
pIC50: −log10 of the molar value.

Key:
HCT-116 = assay: Antiproliferative activity against human HCT-116 cells assessed as cell viability incubated for 48 hrs by MTT assay; format: functional
HT-29 = assay: Antiproliferative activity against human HT-29 cells assessed as cell viability incubated for 48 hrs by MTT assay; format: functional
SW480 = assay: Antiproliferative activity against human SW480 cells assessed as cell viability incubated for 48 hrs by MTT assay; format: functional
CT26 = assay: Antiproliferative activity against […] cells assessed as cell viability incubated for 48 hrs by MTT assay; format: functional; conditions: Mus musculus
[1] = Cytotoxicity against human GES1 cells assessed as cell viability incubated for 48 hrs by MTT assay; format: toxicity, cell-based
[2] = biological target: T1, Cyclin-dependent kinase 8 (Homo sapiens, UniProt P49336); conditions: dose 200.0 nM
T1 sequence (P49336 whole entry): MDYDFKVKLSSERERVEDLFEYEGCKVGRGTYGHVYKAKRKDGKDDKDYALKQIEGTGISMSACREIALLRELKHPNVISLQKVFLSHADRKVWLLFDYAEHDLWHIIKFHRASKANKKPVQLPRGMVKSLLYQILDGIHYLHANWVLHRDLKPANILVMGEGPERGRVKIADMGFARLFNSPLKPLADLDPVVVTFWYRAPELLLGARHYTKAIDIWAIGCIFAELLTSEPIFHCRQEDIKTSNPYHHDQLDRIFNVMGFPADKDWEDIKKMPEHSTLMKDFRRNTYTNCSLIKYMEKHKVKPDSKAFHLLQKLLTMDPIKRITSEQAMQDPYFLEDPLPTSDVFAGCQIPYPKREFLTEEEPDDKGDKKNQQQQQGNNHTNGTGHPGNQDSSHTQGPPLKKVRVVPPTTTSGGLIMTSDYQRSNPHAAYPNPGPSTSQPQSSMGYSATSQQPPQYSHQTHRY

[3] = biological target: T1, Cyclin-dependent kinase 8; assay: Inhibition of CDK8 (unknown origin) assessed as inhibition rate

| Structure (SMILES) | GI50 (HCT-116) [µM] | GI50 (HT-29) [µM] | GI50 (SW480) [µM] | GI50 (CT26) [µM] | inhibition [2] [%] | pIC50 [3] | GI50 at 48 h [1] [µM] |
| --- | --- | --- | --- | --- | --- | --- | --- |
| O=C(Nc1ccc(Oc2cnc3[nH]ccc3c2)cc1)Nc1cccc(Cl)c1 | 90.1 | 41.1 | 30.7 | 20.9 |  |  |  |
| Cc1cccc(NC(=O)Nc2cccc(Oc3ccc(N)nc3)c2)c1 | 26.6 | 41.5 | 66.3 | > 100 |  |  | > 100 |
| Nc1ccc(Oc2cccc(NC(=O)Nc3ccc(Cl)c(Cl)c3)c2)cn1 | 7.6 | 30.3 | 29.2 | 32.4 |  |  | > 100 |
| Nc1ccc(Oc2cccc(NC(=O)Nc3ccc(F)c(Cl)c3)c2)cn1 | 4 | 19.1 | 17.9 | 23.5 |  |  | 31.3 |
| Nc1ccc(Oc2cccc(NC(=O)Nc3cccc(Cl)c3)c2)cn1 | 29.7 | 36.1 | 44.2 | 70.4 |  |  | > 100 |
| Cc1cccc(NC(=O)Nc2ccc(Oc3ccc(N)nc3)cc2)c1 | 37.4 | 59.4 | 12.5 | > 100 |  |  | > 100 |
| Nc1ccc(Oc2ccc(NC(=O)Nc3cccc(F)c3)cc2)cn1 | 70.9 | 49.9 | 45.2 | 66.7 |  |  | > 100 |
| Nc1ccc(Oc2cccc(NC(=O)Nc3cccc(Br)c3)c2)cn1 | 21.3 | 50 | 29.6 | 44.5 |  |  | > 100 |
| O=C(Nc1cccc(Oc2cnc3[nH]ccc3c2)c1)Nc1ccc(Cl)c(C(F)(F)F)c1 | 53.2 | 100 | 100 | > 100 |  |  |  |
| CNC(=O)c1cc(Oc2ccc(NC(=O)Nc3ccc(Cl)c(C(F)(F)F)c3)cc2)ccn1 [SORAFENIB] | 19.8 | 25.6 | 14.7 | 30.2 |  |  | 28.9 |
| Nc1ccc(Oc2cccc(NC(=O)Nc3ccc(F)cc3)c2)cn1 | > 100 | > 100 | 10.9 | 52.3 |  |  | > 100 |
| Nc1ccc(Oc2ccc(NC(=O)Nc3cccc(Br)c3)cc2)cn1 | > 100 | > 100 | 14 | 35.6 |  |  | > 100 |
| Nc1ccc(Oc2ccc(NC(=O)Nc3cccc(Cl)c3Cl)cc2)cn1 | 54.6 | 18.8 | 77.5 | 88.2 |  |  | > 100 |
| Nc1ccc(Sc2ccc(NC(=O)Nc3cccc(C(F)(F)F)c3)cc2)cn1 | 43.6 | 16.7 | 8.2 | 10.3 |  |  | > 100 |
| Cc1ccc(NC(=O)Nc2cccc(Oc3ccc(N)nc3)c2)cc1Cl | > 100 | > 100 | > 100 | > 100 |  |  | > 100 |
| Nc1ccc(Oc2cccc(NC(=O)Nc3ccccc3F)c2)cn1 | 34.4 | 27.5 | 43 | 83.1 |  |  | 43.6 |
| Cc1ccc(NC(=O)Nc2cccc(Oc3ccc(N)nc3)c2)cc1 | > 100 | 19 | > 100 | > 100 |  |  | > 100 |
| Cc1ccc(NC(=O)Nc2ccc(Oc3cnc4[nH]ccc4c3)cc2)cc1C(F)(F)F | > 100 | 39.8 | 30.1 | 55.2 |  |  | 24 |

Now those with a lower GI50 (HT-29), led by results:

| GI50 (HCT-116) [µM] | GI50 (HT-29) [µM] | GI50 (SW480) [µM] | GI50 (CT26) [µM] | inhibition [2] [%] | pIC50 [3] | Structure (SMILES) | GI50 at 48 h [1] [µM] |
| --- | --- | --- | --- | --- | --- | --- | --- |
| 20.4 | 9 | 22.5 | > 100 |  |  | COc1cccc(NC(=O)Nc2ccc(Oc3ccc(N)nc3)cc2)c1 | 43.2 |
| 11.2 | 8.5 | 15.5 | 7.4 |  |  | Nc1ccc(Oc2ccc(NC(=O)Nc3ccc(F)c(C(F)(F)F)c3)cc2)cn1 | 52.5 |
| 7.4 | 7.7 | 12.8 | 25.5 |  |  | Nc1ccc(Oc2cccc(NC(=O)Nc3ccc(F)c(C(F)(F)F)c3)c2)cn1 | 39.1 |
|  | 2.1 | 1.9 | 5.3 |  |  | O=C(Nc1ccc(Oc2cnc3[nH]ccc3c2)cc1)Nc1cccc(C(F)(F)F)c1 |  |
| 1.8 | 8.6 | 18.4 | 42.7 |  |  | CC(=O)Nc1ccc(Oc2ccc(NC(=O)Nc3cccc(C(F)(F)F)c3)cc2)cn1 | 28.2 |
| 8 | 1.1 | 2.5 | 8.7 |  |  | O=C(Nc1cccc(Oc2cnc3[nH]ccc3c2)c1)Nc1cccc(C(F)(F)F)c1 | 40.7 |
| 15.7 | 3.4 | 3.9 | 12.9 |  |  | Nc1ccc(Oc2ccc(NC(=O)Nc3ccc(Cl)c(C(F)(F)F)c3)cc2)cn1 | 26.8 |
|  | 2.3 | 1.4 | 8.3 |  |  | O=C(Nc1ccc(Oc2cnc3[nH]ccc3c2)cc1)Nc1ccc(Cl)c(C(F)(F)F)c1 |  |
| 12.5 | 8.5 | 13.2 | > 100 |  |  | Nc1ccc(Oc2ccc(NC(=O)Nc3cccc(Cl)c3)cc2)cn1 | 65.5 |
| 1.7 | 2.5 | 10.4 | 6.9 |  |  | Nc1ccc(Oc2cccc(NC(=O)Nc3cccc(C(F)(F)F)c3)c2)cn1 | > 100 |
| 9.5 | 8.1 | 9.1 | 5.2 |  |  | Nc1ccc(Oc2cccc(NC(=O)Nc3ccc(Cl)c(C(F)(F)F)c3)c2)cn1 | 10.2 |
| 9.6 | 7.8 | 10.4 | 11.3 | 79 | 7.41 | Cn1cc(-c2ccc(-c3cncc(Cl)c3N3CCC4(CCNC4=O)CC3)cc2)cn1 | 42.7 |
